Test results: article PMC9014845 (Clinical cancer research : an official journal of the …, 2019)

Test system: advanced solid tumors harboring FGFR1–3 gene alterations
Test: Tumor response according to RECIST 1.1

Which results are given for Debio 1347?
Disease stabilization among patients with confirmed FGFR fusions (10 patients, doses ≥60 mg/day): 5 patients; PRs among patients with confirmed FGFR fusions (10 patients, doses ≥60 mg/day): 3 patients; Patients with stable disease as best objective response (57 evaluable): 16 patients; Patients with stable disease showing reduced target lesion size (tumor size regressions of ≤30%) (57 evaluable): 10 patients; Response per independent central radiological review (one patient with cholangiocarcinoma, 110 mg, changed from partial): confirmed complete response; Disease control rate (DCR) (overall): 39%; Disease control rate (DCR) (patients with confirmed FGFR fusions, ≥60 mg/day): 80%; Median treatment duration in patients with disease control (range 24–47): 34 weeks
